Several values for one entry are separate records, joined by “and”; a condition that tells them apart may be missing. Equal values may be shown once. Toxic doses and inconclusive results are not listed.
System: P388 leukemia ip, CD2F1 mice, survival T/C
Test: NCI In Vivo Anticancer Drug Screen. Data for tumor model P388 Leukemia (intraperitoneal) in CD2F1 (CDF1) mice
Settings: endpoint: median survival time, higher = longer survival
In short: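 Mice carrying the transplanted tumor received test compound or vehicle. Survival was recorded in each group, and the value is the treated-group measurement divided by that of the vehicle-treated control group.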

[1] = dose: 12.5 mg/kg/injection, schedule: Q01DX005 (ip), vehicle: saline with Tween-80
[2] = dose: 50.0 mg/kg/injection, schedule: Q01DX005 (ip), vehicle: saline with Tween-80
[3] = dose: 100.0 mg/kg/injection, schedule: Q01DX005 (ip), vehicle: saline with Tween-80
[4] = dose: 200.0 mg/kg/injection, schedule: Q01DX005 (ip), vehicle: saline with Tween-80
[5] = dose: 100.0 mg/kg/injection, schedule: Q04DX003 (ip), vehicle: saline with Tween-80
[6] = dose: 60.0 mg/kg/injection, schedule: Q01DX005 (ip), vehicle: Klucel (hydroxypropylcellulose) (HPC)
[7] = dose: 120.0 mg/kg/injection, schedule: Q01DX005 (ip), vehicle: Klucel (hydroxypropylcellulose) (HPC)
[8] = dose: 240.0 mg/kg/injection, schedule: Q01DX005 (ip), vehicle: Klucel (hydroxypropylcellulose) (HPC)

## C=Cc1cc[n+](CC(=O)c2ccccc2)cc1
dose: 3.12 mg/kg/injection, schedule: Q01DX009 (ip), vehicle: saline
  T/C: 90 % of control
dose: 6.25 mg/kg/injection, schedule: Q01DX009 (ip), vehicle: saline
  T/C: 90 % of control
dose: 12.5 mg/kg/injection, schedule: Q01DX009 (ip), vehicle: saline
  T/C: 103 % of control and 90 % of control

## C[N+](C)=NC1CCC(C(C)(C)C)CC1 (stereo unspecified)
[1]
  T/C: 99 % of control
dose: 25.0 mg/kg/injection, schedule: Q01DX005 (ip), vehicle: saline with Tween-80
  T/C: 99 % of control
[2]
  T/C: 100 % of control

## O=c1[nH]c2cc(Cl)ccc2nc1/C=C(\O)c1cccc(O)c1
dose: 15.0 mg/kg/injection, schedule: Q01DX005 (ip), vehicle: Klucel + Tween-80
  T/C: 106 % of control
dose: 30.0 mg/kg/injection, schedule: Q01DX005 (ip), vehicle: Klucel + Tween-80
  T/C: 94 % of control
dose: 60.0 mg/kg/injection, schedule: Q01DX005 (ip), vehicle: Klucel + Tween-80
  T/C: 101 % of control and 88 % of control

## Nc1ccc2[nH]c(=O)cc(C(=O)O)c2c1
[2]
  T/C: 92 % of control
[3]
  T/C: 93 % of control
[4]
  T/C: 92 % of control

## NC(=S)N/N=C1/CCCC/C1=N/O
dose: 60.0 mg/kg/injection, schedule: Q01DX005 (ip), vehicle: saline with Tween-80
  T/C: 100 % of control
dose: 120.0 mg/kg/injection, schedule: Q01DX005 (ip), vehicle: saline with Tween-80
  T/C: 100 % of control

## O=C1/C(=C/c2ccc(O)cc2)Oc2cc(O)ccc21
dose: 100.0 mg/kg/injection, schedule: Q01DX001 (ip), vehicle: saline with Tween-80
  T/C: 97 % of control
dose: 200.0 mg/kg/injection, schedule: Q01DX001 (ip), vehicle: saline with Tween-80
  T/C: 91 % of control
dose: 400.0 mg/kg/injection, schedule: Q01DX001 (ip), vehicle: saline with Tween-80
  T/C: 92 % of control

## C[N+]1([O-])CC[N+](C)([O-])CC1 (stereo unspecified)
dose: 60.0 mg/kg/injection, schedule: Q01DX005 (ip), vehicle: saline
  T/C: 103 % of control
dose: 120.0 mg/kg/injection, schedule: Q01DX005 (ip), vehicle: saline
  T/C: 96 % of control
dose: 240.0 mg/kg/injection, schedule: Q01DX005 (ip), vehicle: saline
  T/C: 100 % of control

## CC(C)(C)OSc1ccccc1
dose: 100.0 mg/kg/injection, schedule: Q04DX002 (ip), vehicle: Klucel (hydroxypropylcellulose) (HPC)
  T/C: 101 % of control
dose: 200.0 mg/kg/injection, schedule: Q04DX002 (ip), vehicle: Klucel (hydroxypropylcellulose) (HPC)
  T/C: 97 % of control
dose: 400.0 mg/kg/injection, schedule: Q04DX002 (ip), vehicle: Klucel (hydroxypropylcellulose) (HPC)
  T/C: 102 % of control

## COc1ccc(CCNC(=O)c2c3nc4c(C(=O)NCCc5ccc(OC)c(OC)c5)ccc(C)c4oc-3c(C)c(=O)c2N)cc1OC
dose: 100.0 mg/kg/injection, schedule: Q04DX003 (ip), vehicle: saline + alcohol
  T/C: 104 % of control
dose: 200.0 mg/kg/injection, schedule: Q04DX003 (ip), vehicle: saline + alcohol
  T/C: 102 % of control
dose: 400.0 mg/kg/injection, schedule: Q04DX003 (ip), vehicle: saline + alcohol
  T/C: 105 % of control

## CCCCCCCCCCCCCCCC(=O)OCCCCCCCCCCC
dose: 25.0 mg/kg/injection, schedule: Q04DX003 (ip), vehicle: saline with Tween-80
  T/C: 113 % of control
dose: 50.0 mg/kg/injection, schedule: Q04DX003 (ip), vehicle: saline with Tween-80
  T/C: 95 % of control
[5]
  T/C: 90 % of control

## CC1C(=O)NC(=O)CC1c1ccccc1 (stereo unspecified)
dose: 100.0 mg/kg/injection, schedule: Q04DX002 (ip), vehicle: saline with Tween-80
  T/C: 100 % of control
dose: 200.0 mg/kg/injection, schedule: Q04DX002 (ip), vehicle: saline with Tween-80
  T/C: 103 % of control
dose: 400.0 mg/kg/injection, schedule: Q04DX002 (ip), vehicle: saline with Tween-80
  T/C: 95 % of control

## O=C1NC(=O)C([N+](=O)[O-])C(=O)N1
dose: 25.0 mg/kg/injection, schedule: Q01DX001 (ip), vehicle: saline
  T/C: 100 % of control
dose: 50.0 mg/kg/injection, schedule: Q01DX001 (ip), vehicle: saline
  T/C: 108 % of control

## CC1(C)NC2Cc3c([nH]c4ccccc34)C3(C)CCC1CC23 (stereo unspecified)
dose: 12.5 mg/kg/injection, schedule: Q01DX005 (ip), vehicle: Klucel (hydroxypropylcellulose) (HPC)
  T/C: 94 % of control
dose: 25.0 mg/kg/injection, schedule: Q01DX005 (ip), vehicle: Klucel (hydroxypropylcellulose) (HPC)
  T/C: 94 % of control
dose: 50.0 mg/kg/injection, schedule: Q01DX005 (ip), vehicle: Klucel (hydroxypropylcellulose) (HPC)
  T/C: 89 % of control
dose: 100.0 mg/kg/injection, schedule: Q01DX005 (ip), vehicle: Klucel (hydroxypropylcellulose) (HPC)
  T/C: 108 % of control

## O=C(CC(=O)C(F)(F)C(F)(F)C(F)(F)F)c1csc2ccccc12
[5]
  T/C: 109 % of control

## O=C(O)CC(=O)O.[NH-]C1CCCC([NH-])C1.[Pt+2] (stereo unspecified)
dose: 12.5 mg/kg/injection, schedule: Q04DX002 (ip), vehicle: saline with Tween-80
  T/C: 157 % of control
dose: 25.0 mg/kg/injection, schedule: Q04DX002 (ip), vehicle: saline with Tween-80
  T/C: 180 % of control

## IC1=CC2CCC(C1)C2 (stereo unspecified)
dose: 25.0 mg/kg/injection, schedule: Q01DX009 (ip), vehicle: saline with Tween-80
  T/C: 100 % of control and 103 % of control
dose: 50.0 mg/kg/injection, schedule: Q01DX009 (ip), vehicle: saline with Tween-80
  T/C: 104 % of control and 116 % of control and 93 % of control
dose: 100.0 mg/kg/injection, schedule: Q01DX009 (ip), vehicle: saline with Tween-80
  T/C: 101 % of control and 109 % of control
dose: 200.0 mg/kg/injection, schedule: Q01DX009 (ip), vehicle: saline with Tween-80
  T/C: 102 % of control and 122 % of control and 96 % of control

## Clc1ccc(C=NCCN=Cc2ccc(Cl)c(Cl)c2)cc1Cl
[5]
  T/C: 90 % of control
dose: 200.0 mg/kg/injection, schedule: Q04DX003 (ip), vehicle: saline with Tween-80
  T/C: 95 % of control
dose: 400.0 mg/kg/injection, schedule: Q04DX003 (ip), vehicle: saline with Tween-80
  T/C: 90 % of control

## OCC1OC(ONc2ccccc2)C(O)C(O)C1O (stereo unspecified)
[6]
  T/C: 94 % of control
[7]
  T/C: 99 % of control
[8]
  T/C: 100 % of control

## S=C(N/N=C\c1c[nH]c2ccc(Br)cc12)NC12CC3CC(CC(C3)C1)C2
[6]
  T/C: 98 % of control
[7]
  T/C: 93 % of control
[8]
  T/C: 98 % of control

## CCCCCCCCCCCCNC(=O)[C@@]1(O)[C@H](O)C2(CC)C=CCN3CCC4(c5cc([C@@]6(C(=O)OC)CC7CN(CCc8c6[nH]c6ccccc86)C[C@](O)(CC)C7)c(OC)cc5N(C)[C@H]41)C32 (stereo partly specified)
dose: 18.0 mg/kg/injection, schedule: Q01DX005 (ip), vehicle: other
  T/C: 157 % of control
dose: 30.0 mg/kg/injection, schedule: Q01DX005 (ip), vehicle: other
  T/C: 182 % of control
dose: 30.0 mg/kg/injection, schedule: Q01DX005 (ip), vehicle: saline
  T/C: 160 % of control
dose: 50.0 mg/kg/injection, schedule: Q01DX005 (ip), vehicle: other
  T/C: 230 % of control
dose: 50.0 mg/kg/injection, schedule: Q01DX005 (ip), vehicle: saline
  T/C: 177 % of control

## CCOP(=O)(/C=C1/C(=O)OCC1(C)C)OCC
dose: 100.0 mg/kg/injection, schedule: Q04DX003 (ip), vehicle: saline
  T/C: 100 % of control
dose: 200.0 mg/kg/injection, schedule: Q04DX003 (ip), vehicle: saline
  T/C: 101 % of control
dose: 400.0 mg/kg/injection, schedule: Q04DX003 (ip), vehicle: saline
  T/C: 104 % of control

## CC(=O)C1CC(CC(=O)O)C1(C)C (stereo unspecified)
dose: 25.0 mg/kg/injection, schedule: Q01DX009 (ip), vehicle: Klucel (hydroxypropylcellulose) (HPC)
  T/C: 96 % of control
dose: 50.0 mg/kg/injection, schedule: Q01DX009 (ip), vehicle: Klucel (hydroxypropylcellulose) (HPC)
  T/C: 108 % of control and 92 % of control
dose: 100.0 mg/kg/injection, schedule: Q01DX009 (ip), vehicle: Klucel (hydroxypropylcellulose) (HPC)
  T/C: 96 % of control and 97 % of control
dose: 200.0 mg/kg/injection, schedule: Q01DX009 (ip), vehicle: Klucel (hydroxypropylcellulose) (HPC)
  T/C: 99 % of control and 100 % of control
dose: 400.0 mg/kg/injection, schedule: Q01DX009 (ip), vehicle: Klucel (hydroxypropylcellulose) (HPC)
  T/C: 100 % of control

## CCOc1cc2c(OCc3ccccc3)cc3c4cc(OC)c(OC)cc4c[n+](C)c3c2cc1OC
dose: 3.12 mg/kg/injection, schedule: Q01DX005 (ip), vehicle: saline with Tween-80
  T/C: 118 % of control
dose: 6.25 mg/kg/injection, schedule: Q01DX005 (ip), vehicle: saline with Tween-80
  T/C: 112 % of control
[1]
  T/C: 91 % of control

## Cc1ccc(N2CCN(CC(O)COc3cc4c(c5c3CCCC5)CCCC4)CC2)cc1C (stereo unspecified)
dose: 100.0 mg/kg/injection, schedule: Q04DX003 (ip), vehicle: Klucel (hydroxypropylcellulose) (HPC)
  T/C: 95 % of control
dose: 200.0 mg/kg/injection, schedule: Q04DX003 (ip), vehicle: Klucel (hydroxypropylcellulose) (HPC)
  T/C: 93 % of control
dose: 400.0 mg/kg/injection, schedule: Q04DX003 (ip), vehicle: Klucel (hydroxypropylcellulose) (HPC)
  T/C: 91 % of control

## Cc1cc(C)c2ccc(C)c(N)c2n1
[2]
  T/C: 99 % of control
[3]
  T/C: 92 % of control
[4]
  T/C: 99 % of control
